Assays:
[1] = target: T1, RORβ (Homo sapiens, UniProt Q92753); settings: reporter gene assay, HEK293; read-out: RORβ inverse agonistic activity (IC50); cited from earlier work
T1 construct: expressed in transfected cells; host or cells: HEK293
T1 sequence (Q92753 1-459 isoform Q92753-1): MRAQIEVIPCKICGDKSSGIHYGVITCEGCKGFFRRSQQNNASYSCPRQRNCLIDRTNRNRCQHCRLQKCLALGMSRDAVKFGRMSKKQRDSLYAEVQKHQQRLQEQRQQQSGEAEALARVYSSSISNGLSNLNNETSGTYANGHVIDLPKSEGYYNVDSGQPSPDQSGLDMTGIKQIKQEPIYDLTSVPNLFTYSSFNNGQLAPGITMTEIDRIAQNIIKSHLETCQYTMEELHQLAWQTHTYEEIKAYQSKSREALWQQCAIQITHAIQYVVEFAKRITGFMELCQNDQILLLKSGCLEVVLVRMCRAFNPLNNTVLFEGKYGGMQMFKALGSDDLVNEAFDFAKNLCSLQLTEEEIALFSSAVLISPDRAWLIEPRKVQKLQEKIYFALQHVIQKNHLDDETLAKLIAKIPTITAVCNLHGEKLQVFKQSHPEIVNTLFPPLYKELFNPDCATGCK

[2] = target: T2, LXRα (Homo sapiens, UniProt Q13133); assay: LXRα reporter gene assay in HEK293; assay type: cell-based; settings: read-out: LXRα antagonistic activity (IC50)
T2 construct: CMX-GAL4N-hLXRα-LBD; expressed in transfected cells; host or cells: HEK293
T2 sequence (Q13133 209-447 limits assumed): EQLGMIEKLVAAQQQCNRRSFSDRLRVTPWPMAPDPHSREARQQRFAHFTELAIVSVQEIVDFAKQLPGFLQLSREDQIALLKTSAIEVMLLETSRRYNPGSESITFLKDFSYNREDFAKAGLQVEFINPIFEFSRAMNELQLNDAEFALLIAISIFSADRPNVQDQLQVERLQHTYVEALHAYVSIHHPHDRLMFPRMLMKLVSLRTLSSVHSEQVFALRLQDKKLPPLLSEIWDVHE

[3] = target: T3, AR (Homo sapiens, UniProt P10275); assay: AR reporter gene assay in HEK293; assay type: cell-based; settings: for IC50: reporter gene assay, HEK293, agonist dihydrotestosterone 0.3 nM, read-out: AR antagonistic activity (IC50), AR reporter gene
T3 sequence (P10275 1-920): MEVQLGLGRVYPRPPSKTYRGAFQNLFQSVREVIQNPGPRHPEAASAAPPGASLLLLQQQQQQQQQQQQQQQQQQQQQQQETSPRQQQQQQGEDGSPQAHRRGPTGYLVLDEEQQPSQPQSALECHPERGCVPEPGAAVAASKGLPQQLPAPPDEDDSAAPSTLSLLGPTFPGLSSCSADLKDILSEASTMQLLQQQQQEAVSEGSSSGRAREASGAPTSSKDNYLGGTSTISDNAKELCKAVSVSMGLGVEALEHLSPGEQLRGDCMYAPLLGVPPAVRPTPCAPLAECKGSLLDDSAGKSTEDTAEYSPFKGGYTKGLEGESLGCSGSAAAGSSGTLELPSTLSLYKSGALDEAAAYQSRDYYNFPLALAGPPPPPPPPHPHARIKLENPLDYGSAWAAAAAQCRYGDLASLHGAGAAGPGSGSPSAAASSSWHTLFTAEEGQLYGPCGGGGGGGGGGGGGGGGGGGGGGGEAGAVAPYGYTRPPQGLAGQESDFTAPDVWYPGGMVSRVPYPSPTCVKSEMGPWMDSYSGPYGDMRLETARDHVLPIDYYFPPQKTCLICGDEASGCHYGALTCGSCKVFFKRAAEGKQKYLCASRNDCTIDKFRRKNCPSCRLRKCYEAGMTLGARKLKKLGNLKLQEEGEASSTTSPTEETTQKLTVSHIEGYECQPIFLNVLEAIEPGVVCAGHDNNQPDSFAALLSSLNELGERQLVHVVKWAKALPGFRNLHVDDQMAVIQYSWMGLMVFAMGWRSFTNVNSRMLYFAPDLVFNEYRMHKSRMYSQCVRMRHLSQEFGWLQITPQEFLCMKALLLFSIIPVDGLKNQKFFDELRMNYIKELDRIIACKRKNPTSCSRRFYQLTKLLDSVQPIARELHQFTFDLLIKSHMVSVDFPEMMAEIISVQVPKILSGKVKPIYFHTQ

[4] = target: T4, GR (Homo sapiens, UniProt P04150); assay: GR reporter gene assay in HEK293; assay type: cell-based; settings: for IC50: reporter gene assay, HEK293, agonist dexamethasone 1 nM, read-out: GR antagonistic activity (IC50)
T4 construct: expressed in transfected cells; host or cells: HEK293
T4 sequence (P04150 1-777): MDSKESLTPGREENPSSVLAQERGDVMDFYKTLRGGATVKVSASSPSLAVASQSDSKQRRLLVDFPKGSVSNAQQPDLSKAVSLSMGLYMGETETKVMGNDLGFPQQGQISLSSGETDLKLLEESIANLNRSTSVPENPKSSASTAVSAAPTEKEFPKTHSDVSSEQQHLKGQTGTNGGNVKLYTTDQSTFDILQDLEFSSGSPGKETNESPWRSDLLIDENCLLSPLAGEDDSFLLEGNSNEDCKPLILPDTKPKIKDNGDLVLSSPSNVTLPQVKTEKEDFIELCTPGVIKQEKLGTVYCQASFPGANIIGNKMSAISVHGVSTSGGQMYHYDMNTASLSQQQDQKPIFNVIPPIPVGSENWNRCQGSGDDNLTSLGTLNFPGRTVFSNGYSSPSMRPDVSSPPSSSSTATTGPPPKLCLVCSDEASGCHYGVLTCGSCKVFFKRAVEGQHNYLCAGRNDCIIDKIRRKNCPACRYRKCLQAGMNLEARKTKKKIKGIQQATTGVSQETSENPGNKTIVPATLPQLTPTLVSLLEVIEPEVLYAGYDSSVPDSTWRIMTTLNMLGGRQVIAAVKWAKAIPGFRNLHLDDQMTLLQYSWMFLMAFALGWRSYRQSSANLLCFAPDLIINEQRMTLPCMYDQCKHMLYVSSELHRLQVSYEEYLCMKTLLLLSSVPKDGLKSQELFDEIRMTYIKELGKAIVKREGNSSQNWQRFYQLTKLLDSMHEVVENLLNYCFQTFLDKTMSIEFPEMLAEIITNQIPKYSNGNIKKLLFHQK

| IC50 [2] | IC50 [3] | IC50 [4] | selectivity for AR over LXRα [3] | selectivity for AR over PR [3] | selectivity for AR over RORs and LXRβ [3] | AR potency relative to OHF (more potent) ([3]; under the authors' assay conditions) | improved GR activity compared with 12 [4] | SMILES | IC50 [1] |
| --- | --- | --- | --- | --- | --- | --- | --- | --- | --- |
| > 20 µM | 0.54 µM | 0.76 µM |  |  |  |  |  | CCCCn1c(=O)c2ccccc2c2cc(C(O)(C(F)(F)F)C(F)(F)F)c3c(c21)OCO3 [Compound 26] | > 20 µM |
| 8.5 µM | 6.1 µM | > 20 µM |  |  |  |  |  | CCCCn1c(=O)c2ccccc2c2cc(C(O)(C(F)(F)F)C(F)(F)F)c(OC)c(OC)c21 [Compound 25] | > 10 µM |
| 11 µM | 9.4 µM | 14 µM |  |  |  |  |  | CCCCn1c(=O)c2c(OC)cccc2c2cc(C(O)(C(F)(F)F)C(F)(F)F)ccc21 [Compound 21] | 15 µM |
| 5.3 µM | 0.059 µM | > 20 µM | 90 fold | 6 fold | more than 340 fold | 2.9 fold |  | O=c1[nH]c2c(Cl)cc(C(O)(C(F)(F)F)C(F)(F)F)cc2c2ccccc12 [Compound 43, 4-Chloro-2-(1,1,1,3,3,3-hexafluoro-2-hydroxypropan-2-yl)phenanthridin-6(5H)-one] |  |
| 4.6 µM | > 20 µM | > 20 µM |  |  |  |  |  | CCCCn1c(=O)c2cccc(OC)c2c2cc(C(O)(C(F)(F)F)C(F)(F)F)ccc21 [Compound 24] | > 20 µM |
| 7 µM | > 20 µM | 10 µM |  |  |  |  |  | CCCCn1c(=O)c2ccc(OC)cc2c2cc(C(O)(C(F)(F)F)C(F)(F)F)ccc21 [Compound 23] | 7.2 µM |
| 8.8 µM | 1.6 µM | 17 µM |  |  |  |  |  | CCCCn1c(=O)c2cc(OC)c(OC)cc2c2cc(C(O)(C(F)(F)F)C(F)(F)F)ccc21 [Compound 31] | 16 µM |
| 17 µM | 0.58 µM | 1.7 µM |  |  |  |  |  | CCCCn1c(=O)c2cc(OC)ccc2c2cc(C(O)(C(F)(F)F)C(F)(F)F)c(OC)cc21 [Compound 27] | 13 µM |
| > 20 µM | 9.6 µM | > 20 µM |  |  |  |  |  | CCCCn1c(=O)c2ccccc2c2cc(CO)ccc21 [Compound 11] | > 20 µM |
| > 20 µM | 14 µM | > 20 µM |  |  |  |  |  | CCc1cc(C(O)(C(F)(F)F)C(F)(F)F)cc2c1[nH]c(=O)c1ccccc12 [Compound 41] | > 20 µM |
| > 20 µM | > 20 µM | > 20 µM |  |  |  |  |  | COc1cc(C(O)(C(F)(F)F)C(F)(F)F)cc2c1[nH]c(=O)c1ccccc12 [Compound 39] | > 20 µM |
| > 20 µM | 15 µM | > 20 µM |  |  |  |  |  | CCCCCCCCCn1c(=O)c2ccccc2c2cc(C(O)(C(F)(F)F)C(F)(F)F)ccc21 [Compound 17] | > 20 µM |
| 3.2 µM | 4.6 µM | 7.9 µM |  |  |  |  |  | CCCCn1c(=O)c2c(OC)c(OC)ccc2c2cc(C(O)(C(F)(F)F)C(F)(F)F)ccc21 [Compound 29] | 7.7 µM |
| 3.1 µM | 0.39 µM | 6.9 µM |  |  |  |  |  | O=c1[nH]c2c(F)cc(C(O)(C(F)(F)F)C(F)(F)F)cc2c2ccccc12 [Compound 32] | 14 µM |
|  | 0.5 µM | > 20 µM |  |  |  |  |  | Cn1c(=O)c2ccccc2c2cc(C(O)(C(F)(F)F)C(F)(F)F)ccc21 [Compound 13] | > 20 µM |
| 8.4 µM | 1.1 µM | 1.3 µM |  |  |  |  | 5.7 fold | CCCCn1c(=O)c2ccccc2c2cc(C(O)(C(F)(F)F)C(F)(F)F)c(OC)cc21 [Compound 19] | 8.2 µM |
| > 20 µM | > 20 µM | > 20 µM |  |  |  |  |  | CCCCn1c(=O)c2ccccc2c2c(OC)c(C(O)(C(F)(F)F)C(F)(F)F)ccc21 [Compound 18] | > 20 µM |
| 14 µM | 1.7 µM | > 20 µM |  |  |  |  |  | CCn1c(=O)c2ccccc2c2cc(C(O)(C(F)(F)F)C(F)(F)F)ccc21 [Compound 14] | > 20 µM |
| 7.9 µM | 0.68 µM | > 20 µM |  |  |  |  |  | O=c1[nH]c2ccc(C(O)(C(F)(F)F)C(F)(F)F)cc2c2ccc(F)cc12 [Compound 34] | 11 µM |
| 12 µM | 1 µM | 8.2 µM |  |  |  |  |  | CCCCn1c(=O)c2cc(OC)ccc2c2cc(C(O)(C(F)(F)F)C(F)(F)F)ccc21 [Compound 22] | 15 µM |
| 6.4 µM | 0.92 µM | 7 µM |  |  |  |  |  | O=c1[nH]c2ccc(C(O)(C(F)(F)F)C(F)(F)F)cc2c2cc(F)ccc12 [Compound 35] | 8.3 µM |
| > 20 µM | 5.4 µM | 16 µM |  |  |  |  |  | CCCc1cc(C(O)(C(F)(F)F)C(F)(F)F)cc2c1[nH]c(=O)c1ccccc12 [Compound 42] | 11 µM |
| > 20 µM | 17 µM | > 20 µM |  |  |  |  |  | CCCCn1c(=O)c2ccccc2c2cc(C(C)(C)C)ccc21 [Compound 10] | 13 µM |
| 6.9 µM | 2.4 µM | 3.9 µM |  |  |  |  |  | CCCCn1c(=O)c2ccccc2c2cc(C(O)(C(F)(F)F)C(F)(F)F)cc(OC)c21 [Compound 20] | 6.9 µM |
|  | 0.1 µM | > 20 µM |  |  |  |  |  | O=c1[nH]c2ccc(C(O)(C(F)(F)F)C(F)(F)F)cc2c2ccccc12 [Compound 1] | > 20 µM |
| 3.1 µM | 0.46 µM | 9.8 µM |  |  |  |  |  | O=c1[nH]c2ccc(C(O)(C(F)(F)F)C(F)(F)F)cc2c2cccc(F)c12 [Compound 33] | 9.8 µM |
| > 20 µM | > 20 µM | > 20 µM |  |  |  |  |  | CCCCn1c(=O)c2c(OC)cc(OC)cc2c2cc(C(O)(C(F)(F)F)C(F)(F)F)ccc21 [Compound 30] | > 20 µM |
| > 10 µM | 1.7 µM | 5.2 µM |  |  |  |  |  | CCCCn1c(=O)c2cc(OC)ccc2c2cc(C(O)(C(F)(F)F)C(F)(F)F)cc(OC)c21 [Compound 28] | 11 µM |
| 19 µM | 17 µM | > 20 µM |  |  |  |  |  | CCCCn1c(=O)c2ccccc2c2ccccc21 [Compound 7] | 13 µM |

From article PMC6073568, “Efficient Lead Finding, Activity Enhancement and Preliminary Selectivity Control of Nuclear Receptor Ligands Bearing a Phenanthridinone Skeleton” (International Journal of Molecular Sciences, 2018)
